Entries after “also recorded” stand apart in the source; their conditions may differ.
What was measured:
Type in all cases: biochemical
[1] = target: T1, HDAC2 (Homo sapiens, UniProt Q92769); experiment: HDAC2 inhibition, full IC50 measurement (Reaction Biology; fluorogenic p53 peptide RHKK(Ac)AMC)
T1 construct: purchased Reaction Biology Corporation (assay run by the CRO)
Method in brief: (§1)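 The reaction was a 1 h, 30 °C incubation of enzyme, acoustically added peptide and 50 μM p53-derived AMC substrate in pH 8.0 Tris buffer with NaCl, KCl, MgCl2, 1 mg/ml BSA and 1% DMSO. Duplicate values were averaged.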

[2] = target: T2, HDAC1 (Homo sapiens, UniProt Q13547); experiment: HDAC1 inhibition, full IC50 measurement (Reaction Biology; fluorogenic p53 peptide RHKK(Ac)AMC)
T2 construct: purchased Reaction Biology Corporation (assay run by the CRO)
T2 sequence (Q13547 whole entry): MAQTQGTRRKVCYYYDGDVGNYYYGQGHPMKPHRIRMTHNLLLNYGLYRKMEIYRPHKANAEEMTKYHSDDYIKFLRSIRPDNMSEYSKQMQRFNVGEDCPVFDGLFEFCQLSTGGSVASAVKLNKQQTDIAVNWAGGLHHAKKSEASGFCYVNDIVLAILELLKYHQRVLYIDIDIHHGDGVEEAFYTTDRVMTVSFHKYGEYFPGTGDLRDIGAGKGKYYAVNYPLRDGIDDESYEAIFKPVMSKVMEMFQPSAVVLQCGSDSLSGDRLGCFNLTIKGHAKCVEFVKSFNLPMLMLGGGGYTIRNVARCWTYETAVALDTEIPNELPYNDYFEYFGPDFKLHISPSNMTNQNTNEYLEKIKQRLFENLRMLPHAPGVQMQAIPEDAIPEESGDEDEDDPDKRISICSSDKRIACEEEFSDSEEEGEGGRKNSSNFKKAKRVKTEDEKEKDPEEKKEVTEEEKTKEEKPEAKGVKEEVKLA
Method in brief: as §1

[3] = target: T3, HDAC8 (Homo sapiens, UniProt Q9BY41); experiment: HDAC8 inhibition, full IC50 measurement (Reaction Biology; fluorogenic p53 peptide RHKK(Ac)AMC)
T3 construct: purchased Reaction Biology Corporation (assay run by the CRO)
T3 sequence (Q9BY41 1-377): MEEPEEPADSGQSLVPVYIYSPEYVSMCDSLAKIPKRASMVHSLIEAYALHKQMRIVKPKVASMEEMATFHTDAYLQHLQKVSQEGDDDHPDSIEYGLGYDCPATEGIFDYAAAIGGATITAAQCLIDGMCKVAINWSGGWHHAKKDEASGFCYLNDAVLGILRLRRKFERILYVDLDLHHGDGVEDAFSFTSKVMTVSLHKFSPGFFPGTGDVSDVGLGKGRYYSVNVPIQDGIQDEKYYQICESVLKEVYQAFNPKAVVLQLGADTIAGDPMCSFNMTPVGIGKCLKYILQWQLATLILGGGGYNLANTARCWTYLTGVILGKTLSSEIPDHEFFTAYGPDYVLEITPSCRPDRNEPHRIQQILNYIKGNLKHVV
Method in brief: as §1

[4] = target: T4, HDAC4 (Homo sapiens, UniProt P56524); experiment: HDAC4 inhibition/binding test (BPS Biosciences HDAC fluorogenic assay kit)
T4 construct: purchased BPS Biosciences
T4 sequence (P56524 whole entry): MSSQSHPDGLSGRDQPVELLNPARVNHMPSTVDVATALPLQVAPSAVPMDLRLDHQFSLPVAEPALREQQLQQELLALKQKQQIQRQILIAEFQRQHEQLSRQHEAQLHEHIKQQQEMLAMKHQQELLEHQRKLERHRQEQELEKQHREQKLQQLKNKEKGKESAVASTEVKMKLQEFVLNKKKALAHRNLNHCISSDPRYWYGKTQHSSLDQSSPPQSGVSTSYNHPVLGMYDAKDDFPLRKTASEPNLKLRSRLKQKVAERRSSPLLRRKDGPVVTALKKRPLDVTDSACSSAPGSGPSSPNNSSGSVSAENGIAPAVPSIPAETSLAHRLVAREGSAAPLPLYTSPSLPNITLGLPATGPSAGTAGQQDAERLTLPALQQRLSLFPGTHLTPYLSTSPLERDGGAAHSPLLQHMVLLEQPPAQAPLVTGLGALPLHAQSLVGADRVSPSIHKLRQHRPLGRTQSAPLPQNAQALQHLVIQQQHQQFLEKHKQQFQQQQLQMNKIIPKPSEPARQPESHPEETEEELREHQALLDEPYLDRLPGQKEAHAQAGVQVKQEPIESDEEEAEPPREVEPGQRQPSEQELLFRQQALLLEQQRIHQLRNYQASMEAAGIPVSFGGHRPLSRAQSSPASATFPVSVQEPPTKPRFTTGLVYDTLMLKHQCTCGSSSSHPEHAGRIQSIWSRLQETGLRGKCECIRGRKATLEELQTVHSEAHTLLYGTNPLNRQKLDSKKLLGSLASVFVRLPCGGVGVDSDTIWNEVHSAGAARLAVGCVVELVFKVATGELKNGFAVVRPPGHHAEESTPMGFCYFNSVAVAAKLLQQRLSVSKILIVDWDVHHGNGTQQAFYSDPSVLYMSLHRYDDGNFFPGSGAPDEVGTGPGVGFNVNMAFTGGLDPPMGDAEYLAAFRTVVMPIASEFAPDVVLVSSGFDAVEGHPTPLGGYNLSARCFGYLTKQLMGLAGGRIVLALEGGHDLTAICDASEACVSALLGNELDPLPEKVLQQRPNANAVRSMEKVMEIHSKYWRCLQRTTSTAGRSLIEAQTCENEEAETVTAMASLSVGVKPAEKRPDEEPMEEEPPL

[5] = target: HDAC5 (Homo sapiens, UniProt Q9UQL6); experiment: HDAC5 profiling of SHA anchor and early peptides
Sequence of HDAC5 (Q9UQL6 whole entry): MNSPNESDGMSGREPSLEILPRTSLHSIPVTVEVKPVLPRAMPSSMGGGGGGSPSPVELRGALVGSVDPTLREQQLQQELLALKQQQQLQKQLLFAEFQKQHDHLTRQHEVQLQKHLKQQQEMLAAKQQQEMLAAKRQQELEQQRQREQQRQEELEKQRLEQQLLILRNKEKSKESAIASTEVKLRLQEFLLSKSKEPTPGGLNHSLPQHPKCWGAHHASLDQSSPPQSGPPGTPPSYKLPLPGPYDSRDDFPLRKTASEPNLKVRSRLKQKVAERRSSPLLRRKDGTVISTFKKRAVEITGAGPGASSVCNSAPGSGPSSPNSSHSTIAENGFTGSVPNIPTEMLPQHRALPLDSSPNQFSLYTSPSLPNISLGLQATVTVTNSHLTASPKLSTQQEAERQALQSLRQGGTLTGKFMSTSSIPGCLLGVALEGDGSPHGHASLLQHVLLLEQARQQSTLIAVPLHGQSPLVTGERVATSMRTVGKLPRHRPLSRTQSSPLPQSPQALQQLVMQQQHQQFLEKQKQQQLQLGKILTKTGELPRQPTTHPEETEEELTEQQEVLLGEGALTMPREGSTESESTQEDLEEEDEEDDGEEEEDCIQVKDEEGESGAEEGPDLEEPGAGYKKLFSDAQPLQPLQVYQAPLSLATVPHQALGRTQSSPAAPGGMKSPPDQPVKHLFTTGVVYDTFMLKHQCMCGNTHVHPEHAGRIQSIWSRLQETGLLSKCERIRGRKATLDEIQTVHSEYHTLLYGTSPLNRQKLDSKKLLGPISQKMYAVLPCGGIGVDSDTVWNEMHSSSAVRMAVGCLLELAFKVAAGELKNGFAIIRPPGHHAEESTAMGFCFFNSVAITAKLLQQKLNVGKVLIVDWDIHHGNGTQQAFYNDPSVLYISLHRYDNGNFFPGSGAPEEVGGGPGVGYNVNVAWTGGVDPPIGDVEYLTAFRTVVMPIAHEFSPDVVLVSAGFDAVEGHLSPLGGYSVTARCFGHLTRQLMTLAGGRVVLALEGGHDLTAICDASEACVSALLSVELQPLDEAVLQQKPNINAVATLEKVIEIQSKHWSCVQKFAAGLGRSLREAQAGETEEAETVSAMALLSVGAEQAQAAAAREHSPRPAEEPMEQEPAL

[6] = target: HDAC9 (Homo sapiens, UniProt Q9UKV0); experiment: HDAC9 profiling of SHA anchor and early peptides
Sequence of HDAC9 (Q9UKV0 whole entry): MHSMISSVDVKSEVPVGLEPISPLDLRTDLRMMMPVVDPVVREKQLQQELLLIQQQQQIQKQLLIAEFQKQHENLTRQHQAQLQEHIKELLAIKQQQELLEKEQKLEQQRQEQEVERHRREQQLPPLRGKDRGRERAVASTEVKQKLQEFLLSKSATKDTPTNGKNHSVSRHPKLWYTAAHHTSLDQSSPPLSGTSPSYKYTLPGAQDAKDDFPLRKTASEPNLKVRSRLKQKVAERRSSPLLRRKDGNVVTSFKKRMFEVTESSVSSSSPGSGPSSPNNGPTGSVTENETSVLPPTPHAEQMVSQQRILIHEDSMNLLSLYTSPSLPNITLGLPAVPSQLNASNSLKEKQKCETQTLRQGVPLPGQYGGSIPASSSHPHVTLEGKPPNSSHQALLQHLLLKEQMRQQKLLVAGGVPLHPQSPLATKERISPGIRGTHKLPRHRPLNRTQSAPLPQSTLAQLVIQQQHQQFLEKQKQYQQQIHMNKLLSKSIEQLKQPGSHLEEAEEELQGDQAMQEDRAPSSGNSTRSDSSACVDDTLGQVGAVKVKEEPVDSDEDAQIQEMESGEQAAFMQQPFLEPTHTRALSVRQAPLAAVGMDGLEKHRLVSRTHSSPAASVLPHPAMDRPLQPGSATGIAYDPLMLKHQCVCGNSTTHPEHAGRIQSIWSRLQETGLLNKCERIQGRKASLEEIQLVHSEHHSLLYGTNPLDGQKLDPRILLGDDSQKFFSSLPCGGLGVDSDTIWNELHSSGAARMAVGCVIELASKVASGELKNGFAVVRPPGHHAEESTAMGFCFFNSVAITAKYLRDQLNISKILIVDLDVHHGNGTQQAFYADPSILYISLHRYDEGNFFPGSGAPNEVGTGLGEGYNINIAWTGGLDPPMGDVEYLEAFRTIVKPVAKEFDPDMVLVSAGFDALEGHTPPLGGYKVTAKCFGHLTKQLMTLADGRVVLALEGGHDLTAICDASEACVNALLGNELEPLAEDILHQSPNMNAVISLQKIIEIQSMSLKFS

T1 sequence (Q92769 whole entry): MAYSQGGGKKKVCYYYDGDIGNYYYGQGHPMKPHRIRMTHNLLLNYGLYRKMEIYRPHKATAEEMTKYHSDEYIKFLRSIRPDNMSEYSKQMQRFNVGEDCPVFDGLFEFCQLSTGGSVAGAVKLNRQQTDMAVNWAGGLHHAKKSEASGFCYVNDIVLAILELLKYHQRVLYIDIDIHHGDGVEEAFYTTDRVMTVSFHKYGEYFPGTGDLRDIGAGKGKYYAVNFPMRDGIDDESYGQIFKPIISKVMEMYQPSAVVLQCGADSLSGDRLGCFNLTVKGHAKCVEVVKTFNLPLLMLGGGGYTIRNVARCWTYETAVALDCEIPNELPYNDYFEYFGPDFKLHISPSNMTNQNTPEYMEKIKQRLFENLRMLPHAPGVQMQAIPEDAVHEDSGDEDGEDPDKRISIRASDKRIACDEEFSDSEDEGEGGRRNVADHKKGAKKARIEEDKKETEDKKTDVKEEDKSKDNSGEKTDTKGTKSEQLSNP

HDAC2 raw activity signal ([1]; Conc. 1.00E-05 M): 210566 | HDAC2 raw activity signal ([1]; Conc. 1.11E-06 M): 643731 | HDAC2 raw activity signal ([1]; Conc. 1.23E-07 M): 728862 | HDAC2 raw activity signal ([1]; Conc. 1.37E-08 M): 787686 | HDAC2 raw activity signal ([1]; Conc. 1.52E-09 M): 708004 | HDAC2 raw activity signal ([1]; Conc. 3.33E-06 M): 523867 | HDAC2 raw activity signal ([1]; Conc. 3.70E-07 M): 682189 | HDAC2 raw activity signal ([1]; Conc. 4.12E-08 M): 772929 | HDAC2 raw activity signal ([1]; Conc. 4.57E-09 M): 735698 | HDAC2 raw activity signal ([1]; Conc. 5.08E-10 M): 743884 | IC50 ([1]; read-out: HDAC2 IC50): 5.4 µM | HDAC1 raw activity signal ([2]; Conc. 1.00E-05 M): 155805 | HDAC1 raw activity signal ([2]; Conc. 1.11E-06 M): 648714 | HDAC1 raw activity signal ([2]; Conc. 1.23E-07 M): 748850 | HDAC1 raw activity signal ([2]; Conc. 1.37E-08 M): 768411 | HDAC1 raw activity signal ([2]; Conc. 1.52E-09 M): 737474 | HDAC1 raw activity signal ([2]; Conc. 3.33E-06 M): 525567 | HDAC1 raw activity signal ([2]; Conc. 3.70E-07 M): 713862 | HDAC1 raw activity signal ([2]; Conc. 4.12E-08 M): 763721 | HDAC1 raw activity signal ([2]; Conc. 4.57E-09 M): 780017 | HDAC1 raw activity signal ([2]; Conc. 5.08E-10 M): 759317 | HDAC8 raw activity signal ([3]; Conc. 1.00E-05 M): 485885 | HDAC8 raw activity signal ([3]; Conc. 1.11E-06 M): 715893 | HDAC8 raw activity signal ([3]; Conc. 1.23E-07 M): 664184 | HDAC8 raw activity signal ([3]; Conc. 1.37E-08 M): 813063 | HDAC8 raw activity signal ([3]; Conc. 1.52E-09 M): 850527 | HDAC8 raw activity signal ([3]; Conc. 3.33E-06 M): 572309 | HDAC8 raw activity signal ([3]; Conc. 3.70E-07 M): 755715 | HDAC8 raw activity signal ([3]; Conc. 4.12E-08 M): 855669 | HDAC8 raw activity signal ([3]; Conc. 4.57E-09 M): 817878 | HDAC8 raw activity signal ([3]; Conc. 5.08E-10 M): 743919 | binding to HDAC4 [4]: not detected binding | HDAC4 raw activity signal ([4]; Conc. 1.00E-05 M): 1818034 | HDAC4 raw activity signal ([4]; Conc. 1.11E-06 M): 1589038 | HDAC4 raw activity signal ([4]; Conc. 1.23E-07 M): 1682923 | HDAC4 raw activity signal ([4]; Conc. 1.37E-08 M): 1569641 | HDAC4 raw activity signal ([4]; Conc. 1.52E-09 M): 1604062 | HDAC4 raw activity signal ([4]; Conc. 3.33E-06 M): 1651123 | HDAC4 raw activity signal ([4]; Conc. 3.70E-07 M): 1661788 | HDAC4 raw activity signal ([4]; Conc. 4.12E-08 M): 1863011 | HDAC4 raw activity signal ([4]; Conc. 4.57E-09 M): 1554862 | HDAC4 raw activity signal ([4]; Conc. 5.08E-10 M): 1555289 | HDAC5 raw activity signal ([5]; Conc. 1.00E-05 M): 673421 | HDAC5 raw activity signal ([5]; Conc. 1.11E-06 M): 815210 | HDAC5 raw activity signal ([5]; Conc. 1.23E-07 M): 790981 | HDAC5 raw activity signal ([5]; Conc. 1.37E-08 M): 671078 | HDAC5 raw activity signal ([5]; Conc. 1.52E-09 M): 600695 | HDAC5 raw activity signal ([5]; Conc. 3.33E-06 M): 650638 | HDAC5 raw activity signal ([5]; Conc. 3.70E-07 M): 757112 | HDAC5 raw activity signal ([5]; Conc. 4.12E-08 M): 716396 | HDAC5 raw activity signal ([5]; Conc. 4.57E-09 M): 610467 | HDAC5 raw activity signal ([5]; Conc. 5.08E-10 M): 252249 | HDAC9 raw activity signal ([6]; Conc. 1.00E-05 M): 866095 | HDAC9 raw activity signal ([6]; Conc. 1.11E-06 M): 1324190 | HDAC9 raw activity signal ([6]; Conc. 1.23E-07 M): 1424055 | HDAC9 raw activity signal ([6]; Conc. 1.37E-08 M): 1252931 | HDAC9 raw activity signal ([6]; Conc. 1.52E-09 M): 1327312 | HDAC9 raw activity signal ([6]; Conc. 3.33E-06 M): 1253108 | HDAC9 raw activity signal ([6]; Conc. 3.70E-07 M): 1495255 | HDAC9 raw activity signal ([6]; Conc. 4.12E-08 M): 1362638 | HDAC9 raw activity signal ([6]; Conc. 4.57E-09 M): 1400560 | HDAC9 raw activity signal ([6]; Conc. 5.08E-10 M): 1258385
Structure (SMILES): N[C@@H](CCCCCS)C(=O)O [SHA, 2S-2-amino-7-sulfanylheptanoic acid]
HDAC2 inhibition potency in words [1]: low micro-molar to high nano-molar affinities | HDAC1 inhibition potency in words [2]: low micro-molar to high nano-molar affinities | HDAC8 inhibition potency in words [3]: low micro-molar to high nano-molar affinities | binding to HDAC5 [5]: not detected binding; also recorded: no binding | binding to HDAC9 [6]: not detected binding; also recorded: no binding

From article PMC8185074, “Anchor extension: a structure-guided approach to design cyclic peptides targeting enzyme active sites” (Nature Communications, 2021)
